Tests used:
[1] = biological target: T1, aggregated synthetic Aβ40 (Homo sapiens, UniProt P05067); test: Thiazin-red R displacement fluorescence assay on aggregated A-beta; format: binding; settings: displacement of Thiazin-red R from aggregated Aβ40; compound 0.3 nM to 10000 nM; 30 min room temperature; Ex 531 nm/Em 595 nm
T1 construct: Synthetic Aβ40 is aggregated at a concentration of 50 μM

[2] = biological target: T2, aggregated recombinant human-microtubule associated protein Tau (Homo sapiens, UniProt P10636); test: Thiazin-red R displacement fluorescence assay on aggregated Tau; format: binding; settings: displacement of Thiazin-red R from aggregated Tau; compound 0.3 nM to 10000 nM; 30 min room temperature; Ex 531 nm/Em 595 nm
T2 construct: Recombinant human-microtubule associated protein Tau purified from E. coli is aggregated at a concentration of 5 μM with Arachidonic Acid (100 μM) in Tris 10 mM pH8, 24 h at 37° C
T2 sequence (P10636 whole entry): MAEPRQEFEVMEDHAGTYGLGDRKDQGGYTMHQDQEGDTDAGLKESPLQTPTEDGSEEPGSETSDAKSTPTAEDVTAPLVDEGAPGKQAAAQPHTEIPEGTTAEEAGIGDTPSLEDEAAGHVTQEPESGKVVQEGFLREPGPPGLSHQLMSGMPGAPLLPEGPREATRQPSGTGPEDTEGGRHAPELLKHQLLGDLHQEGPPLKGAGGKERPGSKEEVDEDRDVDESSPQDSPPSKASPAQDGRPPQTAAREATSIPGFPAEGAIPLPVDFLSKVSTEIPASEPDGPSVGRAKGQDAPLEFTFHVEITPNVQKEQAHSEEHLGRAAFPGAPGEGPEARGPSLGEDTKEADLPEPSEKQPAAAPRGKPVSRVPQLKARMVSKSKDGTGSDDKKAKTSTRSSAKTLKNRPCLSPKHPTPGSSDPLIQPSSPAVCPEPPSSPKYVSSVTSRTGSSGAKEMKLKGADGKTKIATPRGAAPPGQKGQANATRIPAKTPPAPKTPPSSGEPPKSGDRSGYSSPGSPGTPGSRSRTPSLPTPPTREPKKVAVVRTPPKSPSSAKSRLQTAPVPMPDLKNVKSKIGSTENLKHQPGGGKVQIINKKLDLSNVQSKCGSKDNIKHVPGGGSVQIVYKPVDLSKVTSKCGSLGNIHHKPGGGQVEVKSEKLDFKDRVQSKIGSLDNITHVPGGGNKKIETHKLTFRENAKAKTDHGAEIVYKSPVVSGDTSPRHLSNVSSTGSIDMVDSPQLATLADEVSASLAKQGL

T1 sequence (P05067 672-711 limits assumed): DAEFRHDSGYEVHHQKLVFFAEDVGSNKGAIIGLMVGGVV

| IC50 [1] [nM] | IC50 [2] [nM] | Compound |
| --- | --- | --- |
| 395 | 4 | CNC(=O)c1cccc(-c2cn3c(=O)/c(=C/c4cc(Cl)c(O)c(OC)c4)sc3n2)c1 [Example 108, 3-{2-[1-(3-Chloro-4-hydroxy-5-methoxy-phenyl)-meth-(Z)-ylidene]-3-oxo-2,3-dihydro-imidazo[2,1-b]thiazol-6-yl}-N-methyl-benzamide] |
| 4920 | 33 | CCCOc1cc(/C=c2\sc3nc(-c4cnccc4C)cn3c2=O)cc(Cl)c1O [Example 109, 2-[1-(3-Chloro-4-hydroxy-5-propoxy-phenyl)-meth-(Z)-ylidene]-6-(4-methyl-pyridin-3-yl)-imidazo[2,1-b]thiazol-3-one] |
| 425 | 17 | CCCOc1cc(/C=c2\sc3nc(-c4cccnc4)cn3c2=O)cc(Cl)c1O [Example 110, 2-[1-(3-Chloro-4-hydroxy-5-propoxy-phenyl)-meth-(Z)-ylidene]-6-pyridin-3-yl-imidazo[2,1-b]thiazol-3-one] |
| 1450 | 17 | CCCOc1cc(/C=c2\sc3nc(-c4ccncc4)cn3c2=O)cc(Cl)c1O [Example 111, 2-[1-(3-Chloro-4-hydroxy-5-propoxy-phenyl)-meth-(Z)-ylidene]-6-pyridin-4-yl-imidazo[2,1-b]thiazol-3-one] |
| 493 | 8 | CCCOc1cc(/C=c2\sc3nc(-c4ccc(-n5cnc(C)c5)nc4)cn3c2=O)cc(Cl)c1O [Example 112, 2-[1-(3-Chloro-4-hydroxy-5-propoxy-phenyl)-meth-(Z)-ylidene]-6-[6-(4-methyl-imidazol-1-yl)-pyridin-3-yl]-imidazo[2,1-b]thiazol-3-one] |
| 1160 | 16 | C=CCNC(=O)c1cccc(-c2cn3c(=O)/c(=C/c4cc(Cl)c(O)c(OC)c4)sc3n2)c1 [Example 113, N-Allyl-3-{2-[1-(3-chloro-4-hydroxy-5-methoxy-phenyl)-meth-(Z)-ylidene]-3-oxo-2,3-dihydro-imidazo[2,1-b]thiazol-6-yl}-benzamide] |
| 352 | 6 | CNC(=O)c1ccc(-c2cn3c(=O)/c(=C/c4cc(Cl)c(O)c(OC)c4)sc3n2)cc1 [Example 114, 4-{2-[1-(3-Chloro-4-hydroxy-5-methoxy-phenyl)-meth-(Z)-ylidene]-3-oxo-2,3-dihydro-imidazo[2,1-b]thiazol-6-yl}-N-methyl-benzamide] |
| 356 | 2 | CCCNC(=O)c1ccc(-c2cn3c(=O)/c(=C/c4cc(Cl)c(O)c(OC)c4)sc3n2)cc1 [Example 115, 4-{2-[1-(3-Chloro-4-hydroxy-5-methoxy-phenyl)-meth-(Z)-ylidene]-3-oxo-2,3-dihydro-imidazo[2,1-b]thiazol-6-yl}-N-propyl-benzamide] |
| 820 | 3 | COc1cc(/C=c2\sc3nc(-c4ccc(C(=O)NCCF)cc4)cn3c2=O)cc(Cl)c1O [Example 116, 4-{2-[1-(3-Chloro-4-hydroxy-5-methoxy-phenyl)-meth-(Z)-ylidene]-3-oxo-2,3-dihydro-imidazo[2,1-b]thiazol-6-yl}-N-(2-fluoro-ethyl)-benzamide] |
| 643 | 5 | COc1cc(/C=c2\sc3nc(-c4ccc(C(=O)NCCCF)cc4)cn3c2=O)cc(Cl)c1O [Example 117, 4-{2-[1-(3-Chloro-4-hydroxy-5-methoxy-phenyl)-meth-(Z)-ylidene]-3-oxo-2,3-dihydro-imidazo[2,1-b]thiazol-6-yl}-N-(3-fluoro-propyl)-benzamide] |
| > 10000 | 12.9 | COc1cc(/C=c2\sc3nc(-c4cccc(C(=O)N(C)CCc5cccc(F)c5)c4)cn3c2=O)cc(Cl)c1O [Example 118, 3-{2-[1-(3-Chloro-4-hydroxy-5-methoxy-phenyl)-meth-(Z)-ylidene]-3-oxo-2,3-dihydro-imidazo[2,1-b]thiazol-6-yl}-N-[2-(3-fluoro-phenyl)-ethyl]-N-methyl-benzamide] |
| 3120 | 60 | CCCOc1cc(/C=c2\sc3nc(-c4cnc[nH]4)cn3c2=O)cc(Cl)c1O [Example 119, 2-[1-(3-Chloro-4-hydroxy-5-propoxy-phenyl)-meth-(Z)-ylidene]-6-(3H-imidazol-4-yl)-imidazo[2,1-b]thiazol-3-one] |
| 591 | 19 | COc1cc(/C=c2\sc3nc(-c4cccc(C(N)=O)c4)cn3c2=O)cc(F)c1O [Example 121, 3-{2-[1-(3-Fluoro-4-hydroxy-5-methoxy-phenyl)-meth-(Z)-ylidene]-3-oxo-2,3-dihydro-imidazo[2,1-b]thiazol-6-yl}-benzamide] |
| 2670 | 23.5 | CCCOc1cc(/C=c2\sc3nc(-c4ccncc4)cn3c2=O)cc(F)c1O [Example 122, 2-[1-(3-Fluoro-4-hydroxy-5-propoxy-phenyl)-meth-(Z)-ylidene]-6-pyridin-4-yl-imidazo[2,1-b]thiazol-3-one] |
| 1060 | 12 | O=c1/c(=C/c2cc(Cl)c(O)c(OCCCF)c2)sc2nc(-c3ccncc3)cn12 [Example 123, 2-[1-(3-Chloro-5-(3-fluoropropoxy)-4-hydroxy-phenyl)-meth-(Z)-ylidene]-6-pyridin-4-yl-imidazo[2,1-b]thiazol-3-one] |
| 1230 | 17 | O=c1/c(=C/c2cc(F)c(O)c(OCCCF)c2)sc2nc(-c3ccncc3)cn12 [Example 124, 2-[1-(3-Fluoro-5-(3-fluoropropoxy)-4-hydroxy-phenyl)-meth-(Z)-ylidene]-6-pyridin-4-yl-imidazo[2,1-b]thiazol-3-one] |
| 621 | 17 | COc1cc(/C=c2\sc3nc(-c4ccc(C(=O)N(C)CCF)cc4)cn3c2=O)cc(Cl)c1O [Example 125, 4-{2-[1-(3-Chloro-4-hydroxy-5-methoxy-phenyl)-meth-(Z)-ylidene]-3-oxo-2,3-dihydro-imidazo[2,1-b]thiazol-6-yl}-N-(2-fluoro-ethyl)-N-methyl-benzamide] |
| 550 | 28 | COc1cc(/C=c2\sc3nc(-c4ccc(C(=O)N(C)C)cc4)cn3c2=O)cc(Cl)c1O [Example 126, 4-{2-[1-(3-Chloro-4-hydroxy-5-methoxy-phenyl)-meth-(Z)-ylidene]-3-oxo-2,3-dihydro-imidazo[2,1-b]thiazol-6-yl}-N,N-dimethyl-benzamide] |
| 118 | 6 | COc1cc(/C=c2\sc3nc(-c4ccc(C(=O)N5CCC(F)CC5)cc4)cn3c2=O)cc(Cl)c1O [Example 127, 2-[1-(3-Chloro-4-hydroxy-5-methoxy-phenyl)-meth-(Z)-ylidene]-6-[4-(4-fluoro-piperidine-1-carbonyl)-phenyl]-imidazo[2,1-b]thiazol-3-one] |
| 218 | 9 | CCCN(C)C(=O)c1ccc(-c2cn3c(=O)/c(=C/c4cc(Cl)c(O)c(OC)c4)sc3n2)cc1 [Example 128, 4-{2-[1-(3-Chloro-4-hydroxy-5-methoxy-phenyl)-meth-(Z)-ylidene]-3-oxo-2,3-dihydro-imidazo[2,1-b]thiazol-6-yl}-N-methyl-N-propyl-benzamide] |
| 2220 | 64 | CCCOc1cc(/C=c2\sc3nc(-c4cnccn4)cn3c2=O)cc(Cl)c1O [Example 129, 2-[1-(3-Chloro-4-hydroxy-5-propoxy-phenyl)-meth-(Z)-ylidene]-6-pyrazin-2-yl-imidazo[2,1-b]thiazol-3-one] |

Source: patent US20150157739A1, “Imidazo[2,1]thiazol-3-one derivatives” (Hoffmann-La Roche Inc., priority 2012, published 2015)
